Patent publication US20110105389A1 (priority 2009, published 2011)

Columns and labels:
[1] = molecular target: T1, GHS-R1a receptor (HEK293 cells expressing GHS-R1a receptor) (Homo sapiens, UniProt Q92847); test: Fluorescence functional assay (ghrelin receptor), Method B2, agonist and antagonist mode; type: cell-based; conditions: functional activity as an antagonist at the ghrelin receptor, Methods B2 and B3
T1 construct: host or cells: HEK293
Method in brief: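 Calcium flux read by ImageTrak epifluorescence in HEK293 cells stably expressing GHS-R1a, loaded 1 h at 37 °C with Calcium-3 dye; buffer HBSS/20 mM Hepes, pH 7.4, with probenecid and BSA. Agonists injected after 10 s baseline, read 50 s more; antagonists 3 min. Sigmoidal fits gave EC50 or IC50.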

[2] = Metabolic stability in human liver microsomes, Method B8; type: in vitro ADME; conditions: human liver microsomes 0.8 mg/mL, 5 μM compound, 37° C.
Source text: B8. Metabolic Stability in Human Liver Microsomes
The liver is the primary site for phase I (oxidation) and phase II (glucuronidation) enzymatic activity responsible for xenobiotic metabolism. Human liver microsomes are used as in vitro screen of metabolic activity for candidate drugs. Similar studies can be run with microsomes from other species, such as those used for in vivo studies, to determine any significant species differences in the stability profile. The aim of this study was to measure the broad-spectrum metabolic stability of representative compounds of the invention. The key aspects of the experimental design are summarized below: • Human liver microsomes (mixed pool of 15 male and female donors) were purchased from In Vitro Technologies (Baltimore, Md.). • Microsomes characterized for phase I (Cyp2A6, 2D6, 2E1, 1A2, 2C19, 3A4, 4A) and phase II (glucuronidation) enzymatic activity. • Assays are performed using a final concentration of 0.8 mg/mL of microsomes in 100 mM potassium phosphate buffer (1.5 mM NADPH, 8 mM MgCl2, pH 7.4, 37° C.). • Compounds are tested in duplicate samples at a single concentration of 5 μM (0.05% DMSO). • Test articles are incubated with the microsomes at 37° C.

[3] = molecular target: T2, human ghrelin receptor (GRLN, growth hormone secretagogue receptor, hGHS-R1a) (Homo sapiens, UniProt Q92847); test: Competitive radioligand binding assay (ghrelin receptor), Method B1; conditions: Ghrelin receptor binding activity, Method B1
T2 construct: purchased PerkinElmer BioSignal #RBHGHSM, lot#1887; host or cells: HEK-293 cells, stably transfected (membranes)
T2 sequence (Q92847 whole entry): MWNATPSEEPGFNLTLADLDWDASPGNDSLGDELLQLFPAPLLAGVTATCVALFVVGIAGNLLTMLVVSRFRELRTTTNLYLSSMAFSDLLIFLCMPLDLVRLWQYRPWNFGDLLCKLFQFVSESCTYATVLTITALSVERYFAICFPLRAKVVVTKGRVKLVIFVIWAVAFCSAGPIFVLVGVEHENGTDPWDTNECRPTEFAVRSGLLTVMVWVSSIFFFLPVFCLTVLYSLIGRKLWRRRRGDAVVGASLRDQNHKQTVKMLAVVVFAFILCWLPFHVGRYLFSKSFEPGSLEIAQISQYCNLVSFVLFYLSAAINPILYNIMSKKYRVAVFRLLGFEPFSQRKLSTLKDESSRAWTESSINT
Method in brief: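 Filtration competition format: bound radioactivity counted after GF/C harvesting and cold 50 mM Tris-HCl washes. Incubation lasted 30 min at room temperature in Hepes pH 7.4 buffer with Ca2+, Mg2+, EDTA and 0.4% BSA (DMSO ≤0.1% final); values from variable-slope non-linear regression.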

[4] = molecular target: T3, ghrelin receptor (HEK-GHSR1 stable cells) (Homo sapiens, UniProt Q92847); test: Ghrelin receptor inverse agonist assay (HTRF IP-one), Method B4; type: cell-based; conditions: inverse agonist at the ghrelin receptor, Method B4
T3 construct: expressed in transfected cells
T3 sequence (Q92847 whole entry): as above
Source text: B4. Ghrelin Receptor Inverse Agonist Assay […]
In addition, the following method can be utilized to assay for inverse agonist activity. (Thomsen, W.; et al. Curr. Opin. Biotechnol. 2005, 16, 655-665; Tozawa-Takahashi F; et al., 11th SBS Annual Conference. September 2005, Geneva; Trinquet, E.; Fink, M.; Bazin, H.; et al. Anal. Biochem. 2006, 358, 126-135; Bergsdorf, C.; Kropp-Goerkis, C.; Kaehler, I.; Ketscher, L.; Boerner, U.; Parczyk, K.; Bader, B. Assay Drug Dev. Technol. 2008, 6, 39-53.)
• 1. Remove culture medium from the plate by inversion. • 2. Add 70 μl of compound/well. • 3. Incubate 30 min at 37° C. • 4. Stop the reaction by adding 15 μl of lysis buffer/well. • 5. Add 15 μl of d2/well. • 6. Add 15 μl of Anti-IP1 cryptate/well. • 7. Incubate 1 h at room temp on an orbital shaker at 100 RPM. • 8. Read the fluorescence in a plate reader (Tecan GeniosPro or similar)
The above sequence was performed using the HTRF IP-one kit (CisBio cat#62P1APEC). For the simultaneous assay of multiple test compounds, 96-well plates can be utilized in this assay (white plate with flat-bottom well, Falcon #353296). These were seeded overnight with 100 000 of HEK-GHSR1 stable cells/well. • Wells A1 and A2 of each plate are used as negative control (wells without d2). Compounds are typically tested in replicate at the following concentrations:
Compounds are stored at 10 mM in 100% DMSO.
1st dilution 1/10 in 100% DMSO (1 mM final concentration).
2nd dilution 1/10 in H2O (0.1 mM final concentration).
Other dilutions are performed in a 96-well plate in stimulation buffer.
The results for representative compounds of the invention are provided in the Examples.

[5] = Pharmacokinetic analysis (intravenous and oral), Method B9; type: in vivo; conditions: Table 10b; for Cl / t1/2: 2 mg/mL intravenous typically employed
Source text: B9. Pharmacokinetic Analysis
The pharmacokinetic (PK) behavior of compounds of the invention and their pharmaceutical compositions can be ascertained by methods well known to those skilled in the art and can be used to investigate the pharmacokinetic parameters (elimination half-life, total plasma clearance, etc.) for intravenous, subcutaneous and oral administration of these substances. (Wilkinson, G. R. “Pharmacokinetics: The Dynamics of Drug Absorption, Distribution, and Elimination” in Goodman & Gilman's The Pharmacological Basis of Therapeutics, Tenth Edition, Hardman, J. G.; Limbird, L. E., Eds., McGraw Hill, Columbus, Ohio, 2001, Chapter 1.) See also U.S. Pat. Nos. 7,476,653; 7,491,695; Intl. Pat. Appl. WO 2008/033328 and U.S. Patent Appl. Publ. 2008/0194672. As an example, compound 1505 has the PK profile below.
The determination of PK parameters for additional representative compounds of the invention is presented in the Examples.
A detailed analysis of the pharmacokinetic profile of representative compounds of the invention was conducted using the procedures outlined in Method B9.
A dose level of 2 mg/mL for intravenous administration and 8 mg/mL for oral administration were typically employed.

T1 sequence (Q92847 whole entry): as above

Structure (SMILES)	Antagonist Activity [1]	HLM, metabolic stability in human liver microsomes [2]	IC50 [3]	IC50 [4]	% F ([5]; 2 mg/mL intravenous and 8 mg/mL oral typically employed)	Cl [5]	t1/2 [5]
COc1cccc(C[C@H]2NC(=O)[C@H](C(C)O)N(C)C(=O)[C@H](C(C)C)NCCOc3ccccc3CC[C@@H](C)NC2=O)c1 (stereo partly drawn) [Compound 1371]	B (B = 1-10 nM)	30.5 μL/min/mg protein					
CC(C)[C@@H]1NCCOc2ccccc2CC[C@@H](C)NC(=O)[C@@H](Cc2ccc(F)c(F)c2)NC(=O)[C@H](C(C)O)N(C)C1=O (stereo partly drawn) [Compound 1372]	A (A <1 nM)	60.8 μL/min/mg protein					
Cc1cccc(C[C@H]2NC(=O)[C@H](C(C)O)N(C)C(=O)[C@H](C(C)C)NCCOc3ccccc3CC[C@@H](C)NC2=O)c1 (stereo partly drawn) [Compound 1373]	A (A <1 nM)	31 μL/min/mg protein					
CC(C)[C@@H]1NCCOc2ccccc2CC[C@@H](C)NC(=O)[C@@H](Cc2cccc(C#N)c2)NC(=O)[C@H](C(C)O)N(C)C1=O (stereo partly drawn) [Compound 1374]	B (B = 1-10 nM)	35.8 μL/min/mg protein					
CC(C)[C@@H]1NCCOc2c(F)cccc2CCCNC(=O)[C@@H](Cc2ccccc2)NC(=O)[C@H](C(C)O)N(C)C1=O (stereo partly drawn) [Compound 1376]	C (C = 10-100 nM)	32.2 μL/min/mg protein					
CC(C)[C@@H]1NCCOc2ccc(F)cc2CCCNC(=O)[C@@H](Cc2ccccc2)NC(=O)[C@H](C(C)O)N(C)C1=O (stereo partly drawn) [Compound 1377]		65.5 μL/min/mg protein					
CC(C)[C@@H]1NCCOc2cccc(F)c2CCCNC(=O)[C@@H](Cc2ccccc2)NC(=O)[C@H](C(C)O)N(C)C1=O (stereo partly drawn) [Compound 1378]	C (C = 10-100 nM)	42.9 μL/min/mg protein					
CC[C@@H]1CCc2ccccc2OCCN[C@@H](C(C)C)C(=O)N(C)[C@@H](C(C)O)C(=O)N[C@H](Cc2ccccc2)C(=O)N1 (stereo partly drawn) [Compound 1393]	B (B = 1-10 nM)	46.6 μL/min/mg protein					
CC(C)[C@@H]1NCCOc2ccccc2CC[C@@H](C)NC(=O)[C@@H](Cc2cccc(C(F)(F)F)c2)NC(=O)[C@H](C(C)O)N(C)C1=O (stereo partly drawn) [Compound 1412]		35.4 μL/min/mg protein					
Cc1cccc(C[C@H]2NC(=O)[C@H](C(C)O)N(C)C(=O)[C@H](C(C)C)NCCOc3cc(F)ccc3CC[C@@H](C)NC2=O)c1 (stereo partly drawn) [Compound 1451]	B (B = 1-10 nM)	10.4 μL/min/mg protein					
COc1cccc(C[C@H]2NC(=O)[C@H](C(C)O)N(C)C(=O)[C@H](C(C)C)NCCOc3cc(F)ccc3CC[C@@H](C)NC2=O)c1 (stereo partly drawn) [Compound 1473]		14.2 μL/min/mg protein					
CC(C)C1NCCOc2cc(F)ccc2C=CCNC(=O)C(Cc2ccc(F)cc2)NC(=O)C(C(C)O)N(C)C1=O (stereo not drawn) [Compound 1690]		21.8 μL/min/mg protein	1 to 10 nM	50 to 100 nM			
CC(C)C1NCCOc2ccccc2C#CCNC(=O)C(Cc2cccc(F)c2)NC(=O)C(C(C)O)N(C)C1=O (stereo not drawn) [Compound 1691]		53.7 μL/min/mg protein	1 to 10 nM	100 to 500 nM			
CC(C)C1NCCOc2cc(F)ccc2C=CCNC(=O)C(Cc2ccccc2)NC(=O)C(C(C)O)N(C)C1=O (stereo not drawn) [Compound 1702]		14.1 μL/min/mg protein	1 to 10 nM	50 to 100 nM			
CCC(C)C1NCCOc2ccccc2C#CCNC(=O)C(Cc2ccc(Cl)cc2)NC(=O)C(C(C)O)N(C)C1=O (stereo not drawn) [Compound 1704]		33.5 μL/min/mg protein	10 to 100 nM	100 to 500 nM			
CCC1CCc2ccc(F)cc2OC(C)CNC(C2(C)CC2)C(=O)N(C)C(C(C)O)C(=O)NC(Cc2ccccc2)C(=O)N1 (stereo not drawn) [Compound 1705]	C (C = 10-100 nM)		10 to 100 nM	100 to 500 nM	50 ± 14%	6 ± 2 mL/min/kg	2.77 ± 0.033 h
CC[C@@H]1CCc2c(F)cccc2OCCN[C@@H](C(C)C)C(=O)N(C)[C@@H](C(C)O)C(=O)N[C@H](Cc2ccc(F)cc2)C(=O)N1 (stereo partly drawn) [Compound 1723]		64.3 μL/min/mg protein	10 to 100 nM	100 to 500 nM			
CC[C@@H]1CCc2c(F)cccc2OCCN[C@@H](C(C)C)C(=O)N(C)[C@@H](C(C)O)C(=O)N[C@H](Cc2c[nH]c3ccccc23)C(=O)N1 (stereo partly drawn) [Compound 1725]		66.5 μL/min/mg protein	10 to 100 nM	100 to 500 nM			
CCC(C)C1NCCOc2ccccc2C=CCNC(=O)C(Cc2ccccc2C)NC(=O)C(C(C)O)N(C)C1=O (stereo not drawn) [Compound 1737]		83.9 μL/min/mg protein	1 to 10 nM	50 to 100 nM			
CCC(C)C1NCCOc2ccccc2C=CCNC(=O)C(Cc2ccccc2Cl)NC(=O)C(C(C)O)N(C)C1=O (stereo not drawn) [Compound 1738]		53.2 μL/min/mg protein	1 to 10 nM	10 to 50 nM			
CCC1CCc2ccc(F)cc2OCCNC(C(C)C)C(=O)N(C)C(C(C)O)C(=O)NC(Cc2c[nH]c3ccc(F)cc23)C(=O)N1 (stereo not drawn) [Compound 1803]	B (B = 1-10 nM)		1 to 10 nM	10 to 50 nM		10 ± 1 mL/min/kg	1.72 ± 0.217 h
